# In US10968215B2 (SHANGHAI HAIHE PHARMACEUTICAL CO., LTD., priority 2016, dated 2021):
# pIC50: −log10 of the molar value.
# Target: PRC2 complex (EZH2 Y641F/EED/SUZ12/RbAp48/AEBP2) (Homo sapiens (Human), UniProt Q15910, Y641F)
# Assay: Activity of a compound to PRC2 complex (EZH2 Y641F), HTRF
# Conditions: not given
# Sequence of PRC2 complex (EZH2 Y641F/EED/SUZ12/RbAp48/AEBP2) (Q15910 whole entry Y641F): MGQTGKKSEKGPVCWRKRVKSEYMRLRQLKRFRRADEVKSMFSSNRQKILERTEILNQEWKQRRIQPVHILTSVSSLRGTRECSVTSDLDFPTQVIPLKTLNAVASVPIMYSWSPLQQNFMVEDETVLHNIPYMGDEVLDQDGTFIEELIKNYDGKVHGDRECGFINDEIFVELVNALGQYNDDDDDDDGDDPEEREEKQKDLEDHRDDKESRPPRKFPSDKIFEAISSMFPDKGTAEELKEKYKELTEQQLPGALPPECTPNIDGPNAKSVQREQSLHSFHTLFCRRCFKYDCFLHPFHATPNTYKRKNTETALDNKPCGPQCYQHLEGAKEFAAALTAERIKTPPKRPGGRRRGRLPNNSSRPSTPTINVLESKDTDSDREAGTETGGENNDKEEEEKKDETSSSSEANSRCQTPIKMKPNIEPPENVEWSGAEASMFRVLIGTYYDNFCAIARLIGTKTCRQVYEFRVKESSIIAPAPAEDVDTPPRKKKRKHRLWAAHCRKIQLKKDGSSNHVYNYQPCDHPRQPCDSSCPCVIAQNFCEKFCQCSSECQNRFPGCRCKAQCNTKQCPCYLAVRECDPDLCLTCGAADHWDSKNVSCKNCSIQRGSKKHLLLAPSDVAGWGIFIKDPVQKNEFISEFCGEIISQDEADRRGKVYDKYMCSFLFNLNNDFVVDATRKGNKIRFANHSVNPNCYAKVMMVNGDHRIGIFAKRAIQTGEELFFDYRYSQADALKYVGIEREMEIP
# Sequence of PRC2 complex (EZH2 Y641F/EED/SUZ12/RbAp48/AEBP2) (O75530 whole entry partner): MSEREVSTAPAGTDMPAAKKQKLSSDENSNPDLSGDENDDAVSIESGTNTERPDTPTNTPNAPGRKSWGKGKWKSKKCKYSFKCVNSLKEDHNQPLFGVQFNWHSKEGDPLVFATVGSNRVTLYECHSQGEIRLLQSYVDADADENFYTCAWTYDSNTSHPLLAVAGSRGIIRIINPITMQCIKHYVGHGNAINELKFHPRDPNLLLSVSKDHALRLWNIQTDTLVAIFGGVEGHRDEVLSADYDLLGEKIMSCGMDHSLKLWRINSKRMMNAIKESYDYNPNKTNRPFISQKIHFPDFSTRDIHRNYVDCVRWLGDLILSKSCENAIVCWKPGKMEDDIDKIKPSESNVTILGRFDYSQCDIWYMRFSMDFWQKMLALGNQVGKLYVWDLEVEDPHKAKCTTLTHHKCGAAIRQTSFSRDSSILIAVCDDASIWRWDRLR
# Sequence of PRC2 complex (EZH2 Y641F/EED/SUZ12/RbAp48/AEBP2) (Q15022 whole entry partner): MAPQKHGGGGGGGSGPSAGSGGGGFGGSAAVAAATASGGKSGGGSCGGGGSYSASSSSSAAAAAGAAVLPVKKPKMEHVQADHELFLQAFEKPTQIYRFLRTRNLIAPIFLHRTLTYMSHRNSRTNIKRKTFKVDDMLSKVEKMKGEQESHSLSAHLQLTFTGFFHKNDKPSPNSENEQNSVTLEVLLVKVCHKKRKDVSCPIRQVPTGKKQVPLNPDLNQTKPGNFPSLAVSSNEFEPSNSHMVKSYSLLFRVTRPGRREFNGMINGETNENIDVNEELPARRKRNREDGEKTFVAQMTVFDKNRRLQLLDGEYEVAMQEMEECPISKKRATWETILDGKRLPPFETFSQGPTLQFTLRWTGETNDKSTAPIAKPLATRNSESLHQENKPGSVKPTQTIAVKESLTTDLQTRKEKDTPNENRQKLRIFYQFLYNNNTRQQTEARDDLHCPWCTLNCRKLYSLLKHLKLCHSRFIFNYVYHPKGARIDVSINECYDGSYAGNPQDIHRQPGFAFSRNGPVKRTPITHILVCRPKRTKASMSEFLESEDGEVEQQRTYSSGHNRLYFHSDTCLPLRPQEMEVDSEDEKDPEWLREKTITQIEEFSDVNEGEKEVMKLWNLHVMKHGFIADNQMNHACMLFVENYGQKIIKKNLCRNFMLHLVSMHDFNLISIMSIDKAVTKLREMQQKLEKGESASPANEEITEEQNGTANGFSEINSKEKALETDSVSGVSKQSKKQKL
# Sequence of PRC2 complex (EZH2 Y641F/EED/SUZ12/RbAp48/AEBP2) (Q09028 whole entry partner): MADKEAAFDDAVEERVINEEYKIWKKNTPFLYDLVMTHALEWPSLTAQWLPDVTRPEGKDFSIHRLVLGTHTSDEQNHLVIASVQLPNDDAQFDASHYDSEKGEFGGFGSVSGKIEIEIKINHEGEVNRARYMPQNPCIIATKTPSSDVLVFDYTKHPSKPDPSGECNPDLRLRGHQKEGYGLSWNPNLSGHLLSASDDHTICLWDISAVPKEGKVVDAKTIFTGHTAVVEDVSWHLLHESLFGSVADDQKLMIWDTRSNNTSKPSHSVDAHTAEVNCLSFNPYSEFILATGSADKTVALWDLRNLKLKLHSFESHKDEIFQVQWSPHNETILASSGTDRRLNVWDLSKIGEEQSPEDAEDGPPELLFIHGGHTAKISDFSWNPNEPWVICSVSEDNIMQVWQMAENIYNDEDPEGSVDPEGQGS
# Sequence of PRC2 complex (EZH2 Y641F/EED/SUZ12/RbAp48/AEBP2) (Q6ZN18 whole entry partner): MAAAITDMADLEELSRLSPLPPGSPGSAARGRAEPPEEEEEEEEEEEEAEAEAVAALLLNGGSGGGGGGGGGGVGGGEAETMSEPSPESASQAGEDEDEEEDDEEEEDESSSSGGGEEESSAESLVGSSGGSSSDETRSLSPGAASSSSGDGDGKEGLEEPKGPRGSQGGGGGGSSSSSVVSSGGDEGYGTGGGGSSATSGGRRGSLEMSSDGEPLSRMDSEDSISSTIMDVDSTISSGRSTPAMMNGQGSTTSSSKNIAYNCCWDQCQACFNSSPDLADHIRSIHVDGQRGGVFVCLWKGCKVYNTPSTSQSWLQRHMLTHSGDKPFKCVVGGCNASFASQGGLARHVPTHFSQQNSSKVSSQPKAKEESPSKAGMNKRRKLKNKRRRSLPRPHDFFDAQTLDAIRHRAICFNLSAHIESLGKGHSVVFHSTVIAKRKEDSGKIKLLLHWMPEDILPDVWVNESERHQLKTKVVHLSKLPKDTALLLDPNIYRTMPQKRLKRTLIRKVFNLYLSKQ
row,Compound,pIC50
1,"Cc1cc(C)c(CNC(=O)c2cc3cncn3c(N(C)C3CCOCC3)c2C)c(=O)[nH]1 [Example 68, N-((4,6-dimethyl-2-oxo-1,2-dihydropyridin-3-yl)methyl)-6-methyl-5-(methyl(tetrahydro-2H-pyran-4-yl)amino)imidazo[1,5-a]pyridine-7-carboxamide]",> 7.00
2,"COc1cc(C)[nH]c(=O)c1CNC(=O)c1cc2c(-c3ccc(F)cc3)ccn2c(C(C)N2CCN(CC(F)(F)F)CC2)c1C (centres unmarked) [Compound 162, 1-(4-fluorophenyl)-N-((4-methoxy-6-methyl-2-oxo-1,2-dihydropyridin-3-yl)methyl)-6-methyl-5-(1-(4-(2,2,2-trifluoroethyl)piperazin-1-yl)ethyl)indolizine-7-carboxamide]",> 7.00
3,"Cc1cc(C)c(CNC(=O)c2cc3cc(-c4ccnn4C)cn3c(C(C)N3CCC(N(C)C)CC3)c2C)c(=O)[nH]1 (centres unmarked) [Example 106, N-((4,6-dimethyl-2-oxo-1,2-dihydropyridin-3-yl)methyl)-5-(1-(4-(dimethylamino)piperidine-1-yl)ethyl)-6-methyl-2-(1-methyl-1H-pyrazol-5-yl)indolizine-7-carboxamide]",> 7.00
4,Cc1cc(C)c(CNC(=O)c2cc3cc(-c4cncs4)cn3c(C(C)N3CCC(N(C)C)CC3)c2C)c(=O)[nH]1 (centres unmarked) [Example 139],> 7.00
5,"COc1ccc(-c2ccn3c(C(C)N4CCOCC4)c(C)c(C(=O)NCc4c(C)cc(C)[nH]c4=O)cc23)cc1 (centres unmarked) [Example 121, N-((4,6-dimethyl-2-oxo-1,2-dihydropyridin-3-yl)methyl)-6-methyl-5-(1-morpholinylethyl)-1-(4-methoxyphenyl)indolizine-7-carboxamide]",6.00 to 7.00

# Same assay, conditions: read-out: IC50 (EZH2_Y641F); EZH2 Y641F PRC2 complex, HTRF; class symbols
row,pIC50,Compound
1,> 7.00,"COc1c(CNC(=O)c2cc3c(-c4ccc(N)nc4)ccn3c(C(C)N3CCN(CC(F)(F)F)CC3)c2C)c(=O)[nH]n1C (centres unmarked) [Compound 187, 1-(6-aminopyridin-3-yl)-N-((5-methoxy-1-methyl-3-oxo-2,3-dihydro-1H-pyrazole-4-yl)methyl)-6-methyl-5-(1-(4-(2,2,2-trifluoroethyl)piperazin-1-yl)ethyl)indolizine-7-carboxamide]"
2,> 7.00,"COc1cc(C)[nH]c(=O)c1CNC(=O)c1cc2cc(Cl)cn2c(C(C)N2CCC(N(C)C)CC2)c1C (centres unmarked) [Example 130, 2-chloro-5-(1-(4-(dimethylamino)piperidin-1-yl)ethyl)-N-((4-methoxy-6-methyl-2-oxo-1,2-di hydropyridin-3-yl)methyl)-6-methylindolizine-7-carboxamide]"
3,> 7.00,"CNc1ccc(-c2ccn3c(C(C)N4CCN(CC(F)(F)F)CC4)c(C)c(C(=O)NCc4c(OC)cc(C)[nH]c4=O)cc23)cn1 (centres unmarked) [Compound 163, N-((4-methoxy-6-methyl-2-oxo-1,2-dihydropyridin-3-yl)methyl)-6-methyl-1-(6-(methylamino)pyridin-3-yl)-5-(1-(4-(2,2,2-trifluoroethyl)piperazin-1-yl)ethyl)indolizine-7-carboxamide]"
4,6.00 to 7.00,"Cc1cc(C)c(CNC(=O)c2cc3cc(-c4cncs4)cn3c(C(C)N3CCN(CC(F)(F)F)CC3)c2C)c(=O)[nH]1 (centres unmarked) [Example 141, N-((4,6-dimethyl-2-oxo-1,2-dihydropyridin-3-yl)methyl)-6-methyl-2-(thiazole-5-yl)-5-(1-(4-(2,2,2-trifluoroethyl)piperazin-1-yl)ethyl)indolizine-7-carboxamide]"
5,> 7.00,"COc1cc(C)[nH]c(=O)c1CNC(=O)c1cc2c(-c3ccc(C)nn3)ccn2c([C@H](C)N2CCN(CC(F)(F)F)CC2)c1C (single isomer, unassigned) [Compound 200, (S)—N-((4-methoxy-6-methyl-2-oxo-1,2-dihydropyridin-3-yl)methyl)-6-methyl-1-(6-methylpyridazin-3-yl)-5-(1-(4-(2,2,2-trifluoroethyl)piperazin-1-yl)ethyl)indolizine-7-formamide or (R)—N-((4-methoxy-6-methyl-2-oxo-1,2-dihydropyridin-3-yl)methyl)-6-methyl-1-(6-methylpyridazin-3-yl)-5-(1-(4-(2,2,2-trifluoroethyl)piperazin-1-yl)ethyl)indolizine-7-formamide]"
6,6.00 to 7.00,Cc1cc(C)c(CNC(=O)c2cc3cc(-c4cncs4)cn3c(C(C)N3CCN(CC(F)(F)F)CC3)c2C)c(=O)[nH]1 (centres unmarked) [Example 140]
7,> 7.00,Cc1cc(C)c(CNC(=O)c2cc3c(-c4ccccc4)ccn3c(C(C)N3CCOCC3)c2C)c(=O)[nH]1 (centres unmarked) [Example 81]
8,> 7.00,"Cc1cc(C)c(CNC(=O)c2cc3cccn3c(C(C)OCc3cccs3)c2C)c(=O)[nH]1 (centres unmarked) [Example 17, N-((4,6-dimethyl-2-oxo-1,2-dihydropyridin-3-yl)methyl)-6-methyl-5-(1-(thiophene-2-ylmethoxy)ethyl)indolizine-7-carboxamide]"
9,6.00 to 7.00,"COC(C)c1c(C)c(C(=O)NCc2c(C)cc(C)[nH]c2=O)cc2cccn12 (centres unmarked) [Example 1, N-((4,6-Dimethyl-2-oxo-1,2-dihydropyridin-3-yl)methyl)-5-(1-methoxyethyl)-6-methylindolizine-7-carboxamide]"
10,6.00 to 7.00,"COc1cc(C)[nH]c(=O)c1CNC(=O)c1cc2c(-c3ccc(C)nc3C)ccn2c([C@H](C)N2CCN(CC(F)(F)F)CC2)c1C (single isomer, unassigned) [Compound 178, (S)-1-(2,6-dimethylpyridin-3-yl)-N-((4-methoxy-6-methyl-2-oxo-1,2-dihydropyridine-3-yl)methyl)-6-methyl-5-(1-(4-(2,2,2-trifluoroethyl)piperazin-1-yl)ethyl)indolizine-7-carboxamide or (R) 1-(2,6-dimethylpyridin-3-yl)-N-((4-methoxy-6-methyl-2-oxo-1,2-dihydropyridine-3-yl)methyl)-6-methyl-5-(1-(4-(2,2,2-trifluoroethyl)piperazin-1-yl)ethyl)indolizine-7-carboxamide]"
11,6.00 to 7.00,"Cc1cc(C)c(CNC(=O)c2cc3cccn3c(C(C)OCc3ccccc3)c2C)c(=O)[nH]1 (centres unmarked) [Example 9, 5-(1-(benzyloxy)ethyl)-N-((4,6-dimethyl-2-oxo-1,2-dihydropyridin-3-yl)methyl)-6-methylindolizine-7-carboxamide]"
12,> 7.00,"COc1cc(C)[nH]c(=O)c1CNC(=O)c1cc2c(-c3ccnc(C(C)C)c3)ccn2c(C(C)N2CCN(CC(F)(F)F)CC2)c1C (centres unmarked) [Compound 206, 1-(2-isopropylpyridin-4-yl)-N-((4-methoxy-6-methyl-2-oxo-1,2-dihydropyridin-3-yl)methyl)-6-methyl-5-(1-(4-(2,2,2-trifluoroethyl)piperazin-1-yl)ethyl)indolizine-7-carboxamide]"
13,> 7.00,COc1cc(C)[nH]c(=O)c1CNC(=O)c1cc2cc(-c3nccn3C)cn2c(C(C)N2CCC(N(C)C)CC2)c1C (centres unmarked) [Example 107]
14,> 7.00,"COc1cc(C)[nH]c(=O)c1CNC(=O)c1cc2cc(-c3ccnn3C)cn2c(C(C)N2CCN(CC(F)(F)F)CC2)c1C (centres unmarked) [Example 83, N-((4-methoxy-6-methyl-2-oxo-1,2-dihydropyridin-3-yl)methyl)-6-methyl-2-(1-methyl-1H-pyrazol-5-yl)-5-(1-(4-(2,2,2-trifluoroethyl)piperazin-1-yl)ethyl)indolizine-7-carboxamide]"
15,> 7.00,COc1cc(C)[nH]c(=O)c1CNC(=O)c1cc2c(-c3ccc(C)nc3C)ccn2c(C(C)N2CCN(CC(F)(F)F)CC2)c1C (centres unmarked) [Compound 176]
16,> 7.00,COc1cc(C)[nH]c(=O)c1CNC(=O)c1cc2c(-c3ccnc4c3CCN4)ccn2c(C(C)N2CCN(CC(F)(F)F)CC2)c1C (centres unmarked) [Compound 207]
17,< 5.00,"COC(c1ccc(Br)cc1)c1c(C)c(C(=O)NCc2c(C)cc(C)[nH]c2=O)cc2cccn12 (centres unmarked) [Example 24, 5-((4-bromophenyl)(methoxy)methyl)-N-((4,6-dimethyl-2-oxo-1,2-dihydropyridin-3-yl)methyl)-6-methylindolizine-7-carboxamide]"
18,> 7.00,COc1cc(C)[nH]c(=O)c1CNC(=O)c1cc2cc(-c3nccn3C)cn2c(C(C)N2CCC(N(C)C)CC2)c1C (centres unmarked) [Example 108]

row,Compound,pIC50
1,"CCN(c1c(C)c(C(=O)NCc2c(C)cc(C)[nH]c2=O)cc2cc(-c3nccs3)cn12)C1CCOCC1 [Example 67, N-((4,6-dimethyl-2-oxo-1,2-dihydropyridin-3-yl)methyl)-5-(ethyl(tetrahydro-2H-pyran-4-yl)amino)-6-methyl-2-(thiazol-2-yl)indolizin-7-carboxamide]",6.00 to 7.00
2,"1-(2-chloropyridin-4-yl)-N-((4-methoxy-6-methyl-2-oxo-1,2-dihydropyridin-3-yl)methyl)-6-methyl-5-(1-(4-(2,2,2-trifluoroethyl)piperazin-1-yl)ethyl)indolizine-7-carboxamide [Compound 167]",> 7.00
3,"Cc1cc(C)c(CNC(=O)c2cc3cc(-c4ccnn4C)cn3c(C(C)N3CCOCC3)c2C)c(=O)[nH]1 (centres unmarked) [Example 41, N-((4,6-dimethyl-2-oxo-1,2-dihydropyridin-3-yl)methyl)-6-methyl-2-(1-methyl-1H-pyrazol-5-yl)-5-(1-morpholineylethyl)indolizine-7-carboxamide]",> 7.00
4,"Cc1cc(C)c(CNC(=O)c2cc3c(-c4cccc(N5CCOCC5)c4)ccn3c(C(C)N3CCOCC3)c2C)c(=O)[nH]1 (centres unmarked) [Example 116, N-((4,6-dimethyl-2-oxo-1,2-dihydropyridin-3-yl)methyl)-1-(3-(dimethylamine)phenyl)-6-methyl-5-(1-morpholinylethyl)indolizine-7-carboxamide]",> 7.00
5,"COc1cccc(-c2cc3cc(C(=O)NCc4c(C)cc(C)[nH]c4=O)c(C)c(C(C)N4CCOCC4)n3c2)c1 (centres unmarked) [Example 96, N-((4,6-dimethyl-2-oxo-1,2-dihydropyridin-3-yl)methyl)-2-(3-methoxyphenyl)-6-methyl-5-(1-morpholinylethyl)indolizine-7-carboxamide]",> 7.00

# Same assay, conditions: read-out: IC50 (EZH2_Y641F); EZH2 Y641F PRC2 complex, HTRF; numeric values
row,Compound,pIC50
1,"COc1cc(C)[nH]c(=O)c1CNC(=O)c1cc2c(-c3ccn[nH]3)ccn2c(C(C)N2CCOCC2)c1C (centres unmarked) [Compound 153, N-((4-Methoxy-6-methyl-2-oxo-1,2-dihydropyridin-3-yl)methyl)-6-methyl-5-(1-morpholinylethyl)-1-(1H-pyrazol-5-yl)indolizine-7-carboxamide]",8.67
